Results on 41 molecules are retold here after PubChem BioAssay AID1996.

Molecules are shown by their SMILES. Values after ≈ are worked out from the molar mass of the structure shown.

As a reminder, the kinetic solubility is solubility judged after dilution from a stock solution rather than from solid.

For the series the following is noted: buffer; pH 7.4; 200.0 µM.
For `O=c1[nH]c2ccc(S(=O)(=O)Nc3ccc(Cl)cc3)cc2[nH]1`, the solubility (kinetic) was determined as 2.2 µg/mL (≈ 6.8 µM).

`CCCCNC(=O)C1CC(=O)N(CCc2ccc(C)cc2)C1` (stereo unspecified) registered a kinetic solubility of more than 45.4 µg/mL.

Regarding `O=C(CN1CCN(c2ccc(Cl)cc2[N+](=O)[O-])CC1)N1CCOCC1`, the kinetic solubility is more than 55.3 µg/mL.

For the molecule `Cc1cccn2cc(CCNC(=O)c3cccs3)nc12`, the kinetic solubility is more than 42.8 µg/mL.

Molecule `COc1ccc(/C=C/c2ccc3cccc(O)c3n2)cc1Br` registered a solubility (kinetic) of less than 0.8 µg/mL.

Molecule `CN(CC(=O)NCc1cccnc1)S(=O)(=O)c1ccccc1` gave a kinetic solubility of more than 47.9 µg/mL.

`Cc1cc(-c2ccccc2C(=O)Nc2ccccc2O)on1`: the solubility (kinetic) was more than 44.1 µg/mL.

The molecule `CSc1ccc(NC(=O)/C=C/C(=O)O)cc1` displayed a solubility (kinetic) of 30.8 µg/mL (≈ 130 µM).

`CC(C)Oc1ccc(/C=C(\C#N)C(=O)NC2CC2)cc1` displayed a kinetic solubility of 13.4 µg/mL (≈ 49.6 µM).

In the case of `COc1ccc(C)cc1S(=O)(=O)Nc1ccncc1`, the solubility (kinetic) is more than 41.7 µg/mL.

Turning to `COc1ccccc1NC(=O)c1cnc(SC)nc1`, the solubility (kinetic) was more than 41.3 µg/mL.

Turning to `O=C(CN1C(=O)COc2ccc(Cl)cc21)NCC1CCCO1` (stereo unspecified), the kinetic solubility was more than 48.7 µg/mL.

In the case of `CN1CCC(N(C)C(=O)c2cc(S(=O)(=O)N3CCOCC3)ccc2Cl)CC1.Cl`, the solubility (kinetic) is more than 67.9 µg/mL.

In turn, `Cc1cc(C)c(NC(=O)C2CCN(C(=O)c3ccco3)CC2)c(C)c1` returned a kinetic solubility of 44.2 µg/mL (≈ 130 µM).

`CC1CC(C)CN(C(=O)COC(=O)c2ccc3c(c2)OCO3)C1` (stereo unspecified) yielded a solubility (kinetic) of 47 µg/mL (≈ 147 µM).

`Cc1ccc(S(=O)(=O)n2cccc2C)cc1` had a solubility (kinetic) of 5.1 µg/mL (≈ 21.7 µM).

For the molecule `COc1ccc(NC(=S)Nc2ccc(F)cc2)cc1`, the solubility (kinetic) amounted to 27.7 µg/mL (≈ 100 µM).

`COc1ccc([N+](=O)[O-])cc1NCC(=O)c1ccc(C)cc1` registered a kinetic solubility of 14.2 µg/mL (≈ 47.3 µM).

For `COC(=O)c1cccc(NC(=O)c2ccc3c(c2)C(=O)N(C(C)(C)C)C3=O)c1`, the solubility (kinetic) was less than 0.4 µg/mL.

With `CNC(=S)Nc1ccc(N2CCCC2)c(S(=O)(=O)Nc2ccc(OC)cc2)c1`, the solubility (kinetic) amounted to 34.6 µg/mL (≈ 82.3 µM).

`CC(=O)N(c1cccc(C)c1)S(=O)(=O)c1ccc(Cl)cc1` returned a kinetic solubility of 32.7 µg/mL (≈ 101 µM).

On to `O=C1NC(c2ccc(Cl)c([N+](=O)[O-])c2)Nc2ccccc21` (stereo unspecified), for which the kinetic solubility was determined as 7.7 µg/mL (≈ 25.4 µM).

The molecule `CCOc1ncccc1C(=O)NCCc1ccc(OC)cc1` yielded a kinetic solubility of more than 45.1 µg/mL.

`CN(CCc1ccccn1)C(=S)Nc1ccc(Cl)cc1Cl` had a kinetic solubility of 46.2 µg/mL (≈ 136 µM).

In the case of `COc1cccc(OCCNC(=O)c2ccc(C)cc2)c1`, the solubility (kinetic) came to 41.9 µg/mL (≈ 147 µM).

`COc1ccc(Cl)cc1NC(=S)Nc1cccnc1` had a solubility (kinetic) of 38.1 µg/mL (≈ 130 µM).

`Fc1ccccc1OCCCn1ccnc1` returned a solubility (kinetic) of more than 33 µg/mL.

The molecule `Cc1cc(=O)oc2cc(NC(=S)NCc3cccnc3)ccc12` had a kinetic solubility of 8.9 µg/mL (≈ 27.4 µM).

Take `COCCCNC(=O)c1cc(S(=O)(=O)NCCCN2CCCC2=O)ccc1Cl`: the solubility (kinetic) is more than 64.8 µg/mL.

On to `Cc1cccc(C(=O)NCCNC(=O)c2cnccn2)c1`, for which the solubility (kinetic) came out at 38.5 µg/mL (≈ 135 µM).

In turn, `CC(=O)Nc1ccc(S(=O)(=O)N2CCN3CCCC3C2)cc1` (stereo unspecified) registered a kinetic solubility of more than 48.5 µg/mL.

For the molecule `CCNC(=O)C12CCC(C)(c3nc4cc(C)c(C)cc4nc31)C2(C)C` (stereo unspecified), the kinetic solubility turned out to be 47.4 µg/mL (≈ 140 µM).

`Clc1ccc(-c2nc3ccccn3c2CN2CCSCC2)cc1`: the solubility (kinetic) worked out at 1.9 µg/mL (≈ 5.53 µM).

In turn, `CCN(C(=O)CSc1nc2ccccc2c(=O)n1-c1ccccc1F)C1CCS(=O)(=O)C1` (stereo unspecified) returned a solubility (kinetic) of 9.5 µg/mL (≈ 20 µM).

`Cc1ccc(Nc2ncc3c(n2)CC(C)CC3=O)c(C)c1` (stereo unspecified) yielded a solubility (kinetic) of more than 42.2 µg/mL.

Take `CCCn1c(=O)c(Br)cn(-c2ccccc2C)c1=O`: the solubility (kinetic) worked out at 48.2 µg/mL (≈ 149 µM).

In turn, `COc1cccc(N2CCN(C(=S)Nc3ccc(F)cc3)CC2)c1` gave a kinetic solubility of 0.6 µg/mL (≈ 1.74 µM).

`COc1ccc(-c2cn(-c3ccc(C)cc3C)c(=S)[nH]2)cc1OC`: the solubility (kinetic) was found to be 16.8 µg/mL (≈ 49.3 µM).

For the molecule `CC(C)(C)c1cc(CCC(=O)NCC2CCCO2)cc(C(C)(C)C)c1O` (stereo unspecified), the solubility (kinetic) was 20.2 µg/mL (≈ 55.9 µM).

The molecule `S=C1NCN(Cc2cccnc2)CN1` yielded a kinetic solubility of more than 31.2 µg/mL.

As to `COc1ccc(OC)c(N2C(=O)CC(=O)NC2=O)c1`, the solubility (kinetic) was more than 39.6 µg/mL.
